Where two headings read alike, the source gives them in different places.

Assay in all cases: KinomeScan kinase panel, single concentration 10 µM
What all share (format): binding

The target of assay [1] is T1, KinomeScan kinase panel (Homo sapiens, UniProt P43405).
T1 construct: purchased DiscoveRx (KinomeScan)
The following applies: 10 µM.

Assay [2] deals with T2, KinomeScan kinase panel (Homo sapiens, UniProt Q9BYT3).
T2 construct: purchased DiscoveRx (KinomeScan)
The following applies: read-out: score (%).

Assay [3] concerns the target T3, KinomeScan kinase panel (Homo sapiens, UniProt P0C1S8).
T3 construct: purchased DiscoveRx (KinomeScan)
The following applies: kinase WEE2; 10 µM; read-out: score (%).

The target of assay [4] is T4, KinomeScan kinase panel (Homo sapiens, UniProt O43293).
T4 construct: purchased DiscoveRx (KinomeScan)
T4 sequence (O43293 whole entry): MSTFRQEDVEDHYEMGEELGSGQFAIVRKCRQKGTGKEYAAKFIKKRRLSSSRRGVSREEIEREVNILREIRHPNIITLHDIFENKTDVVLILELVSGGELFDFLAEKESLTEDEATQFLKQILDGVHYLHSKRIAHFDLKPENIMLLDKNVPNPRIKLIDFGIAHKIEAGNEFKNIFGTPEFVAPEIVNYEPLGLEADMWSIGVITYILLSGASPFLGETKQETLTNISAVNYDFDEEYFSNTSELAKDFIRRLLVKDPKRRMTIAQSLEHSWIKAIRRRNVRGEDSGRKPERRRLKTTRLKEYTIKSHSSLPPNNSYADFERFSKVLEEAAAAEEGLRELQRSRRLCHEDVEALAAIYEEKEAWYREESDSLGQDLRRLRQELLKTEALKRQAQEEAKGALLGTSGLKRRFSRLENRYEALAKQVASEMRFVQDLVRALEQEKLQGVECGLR
The following applies: DAPK3, 10 µM; read-out: score (%).

The target of assay [5] is T5, KinomeScan kinase panel (Homo sapiens, UniProt O43318).
T5 construct: purchased DiscoveRx (KinomeScan)
T5 sequence (O43318 1-606): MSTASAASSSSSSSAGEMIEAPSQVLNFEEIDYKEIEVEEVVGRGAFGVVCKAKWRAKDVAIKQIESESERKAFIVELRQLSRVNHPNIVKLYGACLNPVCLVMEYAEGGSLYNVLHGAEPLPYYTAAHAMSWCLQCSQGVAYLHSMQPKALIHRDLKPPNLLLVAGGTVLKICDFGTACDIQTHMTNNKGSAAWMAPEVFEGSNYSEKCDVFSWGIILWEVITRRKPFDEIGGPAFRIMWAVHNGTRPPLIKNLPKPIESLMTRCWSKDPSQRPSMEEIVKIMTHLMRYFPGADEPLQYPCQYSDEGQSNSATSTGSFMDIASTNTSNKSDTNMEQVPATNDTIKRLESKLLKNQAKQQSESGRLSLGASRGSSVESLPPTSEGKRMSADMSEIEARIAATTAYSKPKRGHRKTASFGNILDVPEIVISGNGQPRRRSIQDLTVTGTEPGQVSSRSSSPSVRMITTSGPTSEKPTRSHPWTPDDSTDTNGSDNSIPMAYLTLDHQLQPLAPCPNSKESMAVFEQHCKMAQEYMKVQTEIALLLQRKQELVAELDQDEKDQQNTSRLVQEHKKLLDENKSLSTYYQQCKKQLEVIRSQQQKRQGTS
The note with it: read-out: score (%).

In assay [6] the target is T6, KinomeScan kinase panel (Homo sapiens, UniProt Q9Y616).
T6 construct: purchased DiscoveRx (KinomeScan)
T6 sequence (Q9Y616 1-596): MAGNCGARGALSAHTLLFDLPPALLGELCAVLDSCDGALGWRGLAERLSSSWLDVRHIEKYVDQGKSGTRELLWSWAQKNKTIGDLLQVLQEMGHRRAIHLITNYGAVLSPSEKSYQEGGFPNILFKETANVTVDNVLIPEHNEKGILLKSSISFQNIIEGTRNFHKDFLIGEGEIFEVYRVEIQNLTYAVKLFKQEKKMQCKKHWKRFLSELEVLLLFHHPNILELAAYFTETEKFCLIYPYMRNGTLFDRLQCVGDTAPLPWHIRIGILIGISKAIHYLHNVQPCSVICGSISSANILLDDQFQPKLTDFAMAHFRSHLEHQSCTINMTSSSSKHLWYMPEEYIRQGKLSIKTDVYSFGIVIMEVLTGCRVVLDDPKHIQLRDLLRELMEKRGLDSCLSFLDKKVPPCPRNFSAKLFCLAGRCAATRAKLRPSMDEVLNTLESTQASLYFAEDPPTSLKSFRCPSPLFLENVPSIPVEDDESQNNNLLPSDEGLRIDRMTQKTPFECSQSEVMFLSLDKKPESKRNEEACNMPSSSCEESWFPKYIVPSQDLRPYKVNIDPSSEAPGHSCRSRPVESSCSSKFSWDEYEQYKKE
The following applies: IRAK3, 10 µM; read-out: score (%).

Assay [7] has as its target T7, KinomeScan kinase panel (Homo sapiens, UniProt P49840).
T7 construct: purchased DiscoveRx (KinomeScan)
The note with it: GSK3A, 10 µM; read-out: score (%).

Assay [8] addresses T8, KinomeScan kinase panel (Homo sapiens, UniProt P37023).
T8 construct: purchased DiscoveRx (KinomeScan)
The note with it: ACVRL1, 10 µM; read-out: score (%).

Assay [9] addresses T9, KinomeScan kinase panel (Homo sapiens, UniProt P07949).
T9 construct: purchased DiscoveRx (KinomeScan)
The following applies: 10 µM, read-out: score (%).

Assay [10] addresses T10, KinomeScan kinase panel (Homo sapiens, UniProt Q04771).
T10 construct: purchased DiscoveRx (KinomeScan)
T10 sequence (Q04771 21-509): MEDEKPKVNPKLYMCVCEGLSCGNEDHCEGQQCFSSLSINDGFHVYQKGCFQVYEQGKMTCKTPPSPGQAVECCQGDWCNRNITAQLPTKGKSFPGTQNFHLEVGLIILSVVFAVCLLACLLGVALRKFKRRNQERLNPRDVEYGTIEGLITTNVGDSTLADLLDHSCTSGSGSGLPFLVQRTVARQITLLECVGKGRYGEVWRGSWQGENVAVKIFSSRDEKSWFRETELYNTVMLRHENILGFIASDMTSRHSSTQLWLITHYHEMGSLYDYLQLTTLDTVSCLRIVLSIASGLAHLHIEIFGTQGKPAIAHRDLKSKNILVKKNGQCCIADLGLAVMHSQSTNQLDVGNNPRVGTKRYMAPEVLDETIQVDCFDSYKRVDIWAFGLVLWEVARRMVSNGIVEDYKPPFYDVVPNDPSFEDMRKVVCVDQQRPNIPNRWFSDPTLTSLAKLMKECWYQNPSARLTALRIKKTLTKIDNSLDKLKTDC
The following applies: ACVR1, 10 µM; read-out: score (%).

For assay [11], the target named is T11, KinomeScan kinase panel (Homo sapiens, UniProt P00533).
T11 construct: purchased DiscoveRx (KinomeScan)
T11 sequence (P00533 25-1210): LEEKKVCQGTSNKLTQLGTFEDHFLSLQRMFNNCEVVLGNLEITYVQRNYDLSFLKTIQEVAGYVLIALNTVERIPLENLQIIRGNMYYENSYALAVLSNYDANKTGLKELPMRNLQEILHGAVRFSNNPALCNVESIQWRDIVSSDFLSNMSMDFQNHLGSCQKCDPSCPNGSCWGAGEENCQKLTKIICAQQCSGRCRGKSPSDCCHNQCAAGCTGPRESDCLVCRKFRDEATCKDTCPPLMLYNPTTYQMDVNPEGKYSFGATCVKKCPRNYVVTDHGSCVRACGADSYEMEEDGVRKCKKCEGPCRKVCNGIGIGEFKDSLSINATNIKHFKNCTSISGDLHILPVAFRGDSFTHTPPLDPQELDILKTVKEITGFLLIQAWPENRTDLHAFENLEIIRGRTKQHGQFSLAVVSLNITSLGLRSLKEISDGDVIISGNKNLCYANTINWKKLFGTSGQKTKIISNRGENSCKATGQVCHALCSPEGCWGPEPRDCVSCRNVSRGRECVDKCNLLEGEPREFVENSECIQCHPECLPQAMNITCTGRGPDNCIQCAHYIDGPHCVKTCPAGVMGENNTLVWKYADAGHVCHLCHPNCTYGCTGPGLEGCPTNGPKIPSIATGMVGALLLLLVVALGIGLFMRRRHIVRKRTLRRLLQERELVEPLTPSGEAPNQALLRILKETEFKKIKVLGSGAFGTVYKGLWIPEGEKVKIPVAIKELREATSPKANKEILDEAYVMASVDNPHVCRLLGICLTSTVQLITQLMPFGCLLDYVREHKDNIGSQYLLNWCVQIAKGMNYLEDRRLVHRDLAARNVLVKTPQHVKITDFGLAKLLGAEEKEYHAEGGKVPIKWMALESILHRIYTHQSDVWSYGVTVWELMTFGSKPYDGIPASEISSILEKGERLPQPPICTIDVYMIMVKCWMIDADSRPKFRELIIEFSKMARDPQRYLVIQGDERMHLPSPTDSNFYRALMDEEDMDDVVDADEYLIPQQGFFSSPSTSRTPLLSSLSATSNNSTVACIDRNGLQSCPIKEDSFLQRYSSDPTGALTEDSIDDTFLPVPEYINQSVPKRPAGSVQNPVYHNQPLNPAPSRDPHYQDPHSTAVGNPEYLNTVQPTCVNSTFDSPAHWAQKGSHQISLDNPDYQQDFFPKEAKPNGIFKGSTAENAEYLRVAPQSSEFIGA
The following applies: EGFR, 10 µM.

T8 sequence (P37023 22-503): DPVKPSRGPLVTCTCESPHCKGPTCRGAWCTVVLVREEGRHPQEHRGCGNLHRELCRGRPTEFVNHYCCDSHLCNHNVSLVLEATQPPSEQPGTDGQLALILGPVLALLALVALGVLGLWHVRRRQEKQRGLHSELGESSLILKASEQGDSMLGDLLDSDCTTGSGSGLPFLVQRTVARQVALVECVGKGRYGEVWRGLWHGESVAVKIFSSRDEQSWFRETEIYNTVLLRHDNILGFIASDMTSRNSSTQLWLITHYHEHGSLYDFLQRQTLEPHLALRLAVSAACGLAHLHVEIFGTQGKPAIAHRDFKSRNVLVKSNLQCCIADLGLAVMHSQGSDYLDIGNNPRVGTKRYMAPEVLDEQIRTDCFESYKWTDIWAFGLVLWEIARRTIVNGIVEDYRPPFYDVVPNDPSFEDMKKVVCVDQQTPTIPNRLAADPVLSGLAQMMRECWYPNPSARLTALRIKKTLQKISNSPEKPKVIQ
T9 sequence (P07949 29-1114): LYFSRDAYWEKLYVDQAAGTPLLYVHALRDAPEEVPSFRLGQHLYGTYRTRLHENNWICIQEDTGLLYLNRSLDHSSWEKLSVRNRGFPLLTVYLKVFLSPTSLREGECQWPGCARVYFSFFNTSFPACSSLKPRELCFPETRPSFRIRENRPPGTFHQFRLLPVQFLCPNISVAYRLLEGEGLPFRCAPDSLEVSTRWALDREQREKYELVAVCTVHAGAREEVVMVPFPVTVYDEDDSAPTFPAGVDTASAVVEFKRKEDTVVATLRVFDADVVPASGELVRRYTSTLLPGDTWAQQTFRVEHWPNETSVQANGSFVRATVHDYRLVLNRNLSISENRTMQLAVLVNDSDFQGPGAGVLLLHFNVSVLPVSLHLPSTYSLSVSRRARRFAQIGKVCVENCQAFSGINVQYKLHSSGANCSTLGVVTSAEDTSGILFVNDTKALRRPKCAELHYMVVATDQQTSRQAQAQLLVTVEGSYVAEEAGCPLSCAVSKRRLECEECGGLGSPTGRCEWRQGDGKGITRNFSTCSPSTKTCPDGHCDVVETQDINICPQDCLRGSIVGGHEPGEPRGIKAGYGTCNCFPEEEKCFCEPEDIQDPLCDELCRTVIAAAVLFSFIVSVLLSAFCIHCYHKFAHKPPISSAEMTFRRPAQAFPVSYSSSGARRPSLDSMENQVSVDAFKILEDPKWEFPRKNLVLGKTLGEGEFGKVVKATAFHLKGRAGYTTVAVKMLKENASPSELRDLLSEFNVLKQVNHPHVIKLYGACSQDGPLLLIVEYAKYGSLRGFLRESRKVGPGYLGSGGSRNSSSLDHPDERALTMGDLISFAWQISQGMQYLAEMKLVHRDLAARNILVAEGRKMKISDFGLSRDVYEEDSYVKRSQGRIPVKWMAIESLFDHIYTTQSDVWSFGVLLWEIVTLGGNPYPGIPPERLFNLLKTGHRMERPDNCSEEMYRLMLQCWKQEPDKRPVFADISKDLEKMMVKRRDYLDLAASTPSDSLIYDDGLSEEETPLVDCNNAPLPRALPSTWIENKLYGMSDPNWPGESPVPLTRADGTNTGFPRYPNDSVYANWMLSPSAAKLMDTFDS
T2 sequence (Q9BYT3 whole entry): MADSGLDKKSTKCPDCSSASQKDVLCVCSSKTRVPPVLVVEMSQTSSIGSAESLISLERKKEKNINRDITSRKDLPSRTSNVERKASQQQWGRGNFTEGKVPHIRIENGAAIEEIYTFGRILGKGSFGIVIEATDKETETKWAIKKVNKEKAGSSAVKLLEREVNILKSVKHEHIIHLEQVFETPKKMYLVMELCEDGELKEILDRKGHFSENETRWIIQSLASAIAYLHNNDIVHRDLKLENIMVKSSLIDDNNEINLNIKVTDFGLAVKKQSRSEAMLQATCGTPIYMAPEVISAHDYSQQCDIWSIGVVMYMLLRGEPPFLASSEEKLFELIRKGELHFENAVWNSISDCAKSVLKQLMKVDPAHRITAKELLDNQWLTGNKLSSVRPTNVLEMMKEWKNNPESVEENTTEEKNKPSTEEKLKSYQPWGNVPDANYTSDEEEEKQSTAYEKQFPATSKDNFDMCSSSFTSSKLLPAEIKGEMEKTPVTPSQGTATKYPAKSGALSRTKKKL
T3 sequence (P0C1S8 whole entry): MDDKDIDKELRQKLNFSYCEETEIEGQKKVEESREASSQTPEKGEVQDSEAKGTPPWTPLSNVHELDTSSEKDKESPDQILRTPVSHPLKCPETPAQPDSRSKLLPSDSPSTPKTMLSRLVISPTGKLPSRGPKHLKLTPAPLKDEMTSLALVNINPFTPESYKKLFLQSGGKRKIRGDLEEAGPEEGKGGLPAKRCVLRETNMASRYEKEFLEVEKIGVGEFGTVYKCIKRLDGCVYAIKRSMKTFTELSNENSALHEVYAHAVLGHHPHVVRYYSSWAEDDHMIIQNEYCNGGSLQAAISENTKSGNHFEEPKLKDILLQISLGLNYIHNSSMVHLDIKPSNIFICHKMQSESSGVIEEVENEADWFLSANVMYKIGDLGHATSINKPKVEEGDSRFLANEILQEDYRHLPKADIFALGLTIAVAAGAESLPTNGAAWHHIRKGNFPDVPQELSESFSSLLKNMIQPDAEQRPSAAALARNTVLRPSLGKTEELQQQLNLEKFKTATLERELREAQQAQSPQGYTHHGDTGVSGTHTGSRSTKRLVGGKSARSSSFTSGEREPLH
T7 sequence (P49840 whole entry): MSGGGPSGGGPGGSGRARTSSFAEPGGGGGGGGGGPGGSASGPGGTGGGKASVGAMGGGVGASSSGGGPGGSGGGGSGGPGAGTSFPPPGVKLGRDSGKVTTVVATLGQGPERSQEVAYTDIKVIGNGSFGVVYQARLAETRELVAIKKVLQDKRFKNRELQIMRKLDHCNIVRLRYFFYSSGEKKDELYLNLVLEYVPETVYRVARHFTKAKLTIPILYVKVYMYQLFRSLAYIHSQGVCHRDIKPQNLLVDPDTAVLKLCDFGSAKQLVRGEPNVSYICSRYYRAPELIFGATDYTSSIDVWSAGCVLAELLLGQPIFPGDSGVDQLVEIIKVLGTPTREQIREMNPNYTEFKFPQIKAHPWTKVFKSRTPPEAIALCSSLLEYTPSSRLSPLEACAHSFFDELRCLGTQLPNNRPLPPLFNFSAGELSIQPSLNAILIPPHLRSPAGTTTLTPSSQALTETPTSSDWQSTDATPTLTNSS

`CCN1CCN(Cc2ccc(NC(=O)c3ccc(C)c(NC(=O)c4cncc(-c5cccs5)c4)c3)cc2C(F)(F)F)CC1` [ALW-II-41-27]: the “score (%)” value was 4.2% at KinomeScan kinase panel [1] (kinase SYK) and 1.3% on KinomeScan kinase panel [11]. The remaining binding at 10 µM at KinomeScan kinase panel [2] (kinase STK33, 10 µM) is > 30%; at KinomeScan kinase panel [3], > 30%; on KinomeScan kinase panel [4], > 30%; on KinomeScan kinase panel [5] (kinase TAK1, 10 µM) it was 0%; at KinomeScan kinase panel [6] it was > 30%; at KinomeScan kinase panel [7], > 30%. Further, the remaining binding at 10 µM on KinomeScan kinase panel [8] is > 30%; on KinomeScan kinase panel [9] (RET), 0.05%; at KinomeScan kinase panel [10], > 30%.

For `CCN1CCN(Cc2ccc(NC(=O)c3ccc(C)c(/C=C/c4cnc5[nH]ccc5c4Cl)c3)cc2C(F)(F)F)CC1` [HG-6-63-01, (E)-3-(2-(4-chloro-1H-pyrrolo[2,3-b]pyridin-5-yl)vinyl)-N-(4-((4-ethylpiperazin-1-yl)methyl)-3-(trifluoromethyl)phenyl)-4-methylbenzamide], the “score (%)” value at KinomeScan kinase panel [1] (SYK) stood at 1.8%; on KinomeScan kinase panel [11] it was 0.3%. Also, the remaining binding at 10 µM at KinomeScan kinase panel [2] (STK33, 10 µM) is 23%; at KinomeScan kinase panel [3] it was 15%; on KinomeScan kinase panel [4] it was > 30%; at KinomeScan kinase panel [5] (TAK1, 10 µM), 0.1%; at KinomeScan kinase panel [6] it was > 30%; on KinomeScan kinase panel [7] it was > 30%. Further, the remaining binding at 10 µM is > 30% on KinomeScan kinase panel [8], 0% on KinomeScan kinase panel [9] (RET) and > 30% at KinomeScan kinase panel [10].

On to `CCN1CCN(Cc2ccc(NC(=O)c3ccc(C)c(C#Cc4cccnc4)c3)cc2C(F)(F)F)CC1` [XMD15-44], for which the “score (%)” value at KinomeScan kinase panel [1] (kinase SYK) was 13%; at KinomeScan kinase panel [11] it was 3%. Further, the remaining binding at 10 µM at KinomeScan kinase panel [2] (kinase STK33, 10 µM) is 14%; on KinomeScan kinase panel [3], 100%; on KinomeScan kinase panel [4], > 30%; at KinomeScan kinase panel [5] (kinase TAK1, 10 µM) it was 0.2%; on KinomeScan kinase panel [6], > 30%; on KinomeScan kinase panel [7] it was > 30%. Besides, the results for the remaining binding at 10 µM at KinomeScan kinase panel [8], at KinomeScan kinase panel [9] (kinase RET) and on KinomeScan kinase panel [10] were > 30%, 0% and > 30%, respectively.

The values above are taken from article PMC4457528, “Identification of Novel Small Molecule Inhibitors of Oncogenic RET Kinase” (PLoS ONE, 2015).
